Data on 20 compounds can be found in patent publication US20190127366A1 (LifeSci Pharmaceuticals, Inc., priority 2015, published 2019).

Broadly, the IC50 is the concentration at which inhibition is half-maximal.

In the assay the target is T1, human complement factor D (Homo sapiens, UniProt P00746).
T1 construct: purchased R&D Systems 1824-SE
T1 sequence (P00746 26-253): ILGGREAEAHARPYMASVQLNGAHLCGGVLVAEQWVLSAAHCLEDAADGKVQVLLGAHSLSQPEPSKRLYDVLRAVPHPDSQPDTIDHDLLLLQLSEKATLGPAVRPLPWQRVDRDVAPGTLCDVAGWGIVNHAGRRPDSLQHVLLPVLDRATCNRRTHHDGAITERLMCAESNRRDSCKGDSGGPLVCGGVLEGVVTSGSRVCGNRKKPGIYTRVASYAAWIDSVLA
Description: In vitro enzyme inhibition (Z-Lys-SBzl/DTNB absorbance assay). The format is biochemical. Particulars: Complement Factor D (R&D Systems), substrate Z-Lys-SBzl, A405 nm; read-out: CFD IC50. Put shortly: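 Factor D (6.25 ng/μL before addition) preincubated 5 min RT with compound (8 points from 50 μM, 6-fold, 0.5% DMSO final) in 50 mM Tris/HCl pH 7.5, 1 M NaCl, then Z-Lys-SBzl/DTNB added (200 μM each before addition). A405 read kinetically every 30 s for 60 min; IC50 from variable-slope fit, controls with and without enzyme.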
For `NC(=O)c1nn(CC(=O)N2[C@@H]3CC[C@@H](C3)[C@H]2C(=O)NCc2cccc(Cl)c2F)c2cc(CCO)ccc12` [Example 129, 1-(2-((1R,3S,4S)-3-((3-chloro-2-fluorobenzyl)carbamoyl)-2-azabicyclo[2.2.1]heptan-2-yl)-2-oxoethyl)-6-(2-hydroxyethyl)-1H-indazole-3-carboxamide], the IC50 was 1000 to 10000 nM.
As for `NC(=O)c1nn(CC(=O)N2CCOC[C@H]2C(=O)Nc2cccc(Br)n2)c2ccccc12` [Example 24, (S)-N-(6-bromopyridin-2-yl)-4-(2-(3-carbamoyl-1H-indazol-1-yl)acetyl)morpholine-3-carboxamide], the 50% inhibitory concentration (IC50) was in the range of 1000 to 10000 nM.
The value for `COc1ccc2c(c1)c(C(N)=O)nn2CC(=O)N1[C@@H]2CC[C@@H](C2)[C@H]1C(=O)Nc1cccc(Cl)n1` [Example 74, 1-(2-((1R,3S,4S)-3-((6-chloropyridin-2-yl)carbamoyl)-2-azabicyclo[2.2.1]heptan-2-yl)-2-oxoethyl)-5-methoxy-1H-indazole-3-carboxamide] was 1000 to 10000 nM; that for `NC(=O)c1nn(CC(=O)N2[C@@H]3CC[C@@H](C3)[C@H]2C(=O)NCc2ccc(Cl)c(Cl)c2)c2ccccc12` [Example 72, 1-(2-((1R,3S,4S)-3-((3,4-dichlorobenzyl)carbamoyl)-2-azabicyclo[2.2.1]heptan-2-yl)-2-oxoethyl)-1H-indazole-3-carboxamide] was 1000 to 10000 nM; that for `N#Cc1cccc(NC(=O)[C@@H]2[C@H]3CC[C@H](C3)N2C(=O)Cn2nc(C(N)=O)c3ccccc32)n1` [Example 49, 1-(2-((1R,3S,4S)-3-((6-cyanopyridin-2-yl)carbamoyl)-2-azabicyclo[2.2.1]heptan-2-yl)-2-oxoethyl)-1H-indazole-3-carboxamide] was 1000 to 10000 nM.
Then `COC(=O)c1ccc(NC(=O)[C@@H]2[C@H]3CC[C@H](C3)N2C(=O)Cn2nc(C(N)=O)c3ccccc32)nc1Cl` [Example 107, Methyl 6-((1R,3S,4S)-2-(2-(3-carbamoyl-1H-indazol-1-yl)acetyl)-2-azabicyclo[2.2.1]heptane-3-carboxamido)-2-chloronicotinate], with 1000 to 10000 nM.
`Cc1ccc(NC(=O)[C@@H]2[C@H]3CC[C@H](C3)N2C(=O)Cn2nc(C(N)=O)c3ccccc32)nc1Cl` [Example 68, 1-(2-((1R,3S,4S)-3-((6-chloro-5-methylpyridin-2-yl)carbamoyl)-2-azabicyclo[2.2.1]heptan-2-yl)-2-oxoethyl)-1H-indazole-3-carboxamide 2,2,2-trifluoroacetate]: the IC50 was 100 to 1000 nM.
For the compound `CC(=O)c1nn(CC(=O)N2[C@H](C(=O)Nc3cccc(Cl)n3)C[C@@H]3CCC[C@@H]32)c2ccc(F)cc12` [Example 183, (2S,3aS,6aS)-1-(2-(3-acetyl-5-fluoro-1H-indazol-1-yl)acetyl)-N-(6-chloropyridin-2-yl)octahydrocyclopenta[b]pyrrole-2-carboxamide], the IC50 was 1000 to 10000 nM.
`NC(=O)c1nn(CC(=O)N2[C@@H]3CC[C@@H](C3)[C@H]2C(=O)Nc2cccc(OC(F)(F)F)c2F)c2cnccc12` [Example 42, 1-(2-((1R,3S,4S)-3-((2-fluoro-3-(trifluoromethoxy)phenyl)carbamoyl)-2-azabicyclo[2.2.1]heptan-2-yl)-2-oxoethyl)-1H-pyrazolo[3,4-c]pyridine-3-carboxamide]: the IC50 lay in the range of 1000 to 10000 nM.
With `NC(=O)c1nn(CC(=O)N2[C@@H]3CC[C@@H](C3)[C@H]2C(=O)NC(CCO)c2cccc(Cl)c2F)c2ccccc12` (stereo partly drawn) [Example 146, 1-(2-((1R,3S,4S)-3-((1-(3-chloro-2-fluorophenyl)-3-hydroxypropyl)carbamoyl)-2-azabicyclo[2.2.1]heptan-2-yl)-2-oxoethyl)-1H-indazole-3-carboxamide], the IC50 lay within 1000 to 10000 nM.
Consider `N#Cc1ccc2c(c1)c(C(N)=O)nn2CC(=O)N1[C@H](C(=O)Nc2cccc(Cl)n2)C[C@@H]2CCC[C@@H]21` [Example 174, 1-(2-((2S,3aS,6aS)-2-((6-chloropyridin-2-yl)carbamoyl)hexahydrocyclopenta[b]pyrrol-1(2H)-yl)-2-oxoethyl)-5-cyano-1H-indazole-3-carboxamide], for which the half-inhibitory concentration (IC50) was in the range of 100 to 1000 nM.
Regarding `NC(=O)c1nn(CC(=O)N2[C@H](C(=O)Nc3cccc(Br)n3)C[C@@H]3CCC[C@@H]32)c2ccccc12` [Example 164, 1-(2-((2S,3aS,6aS)-2-((6-bromopyridin-2-yl)carbamoyl)hexahydrocyclopenta[b]pyrrol-1(2H)-yl)-2-oxoethyl)-1H-indazole-3-carboxamide], the IC50 was 100 to 1000 nM.
Then `NC(=O)c1nn(CC(=O)N2[C@@H]3CC[C@@H](C3)[C@H]2C(=O)NCc2cccc(Cl)c2F)c2ccc(CCO)cc12` [Example 132], with 1000 to 10000 nM.
The value for `NC(=O)c1nn(CC(=O)N2[C@@H]3CC[C@@H](C3)[C@H]2C(=O)Nc2cccc(-c3ccccc3F)n2)c2ccccc12` [Example 46, 1-(2-((1R,3S,4S)-3-((6-(2-fluorophenyl)pyridin-2-yl)carbamoyl)-2-azabicyclo[2.2.1]heptan-2-yl)-2-oxoethyl)-1H-indazole-3-carboxamide] was over 10000 nM; that for `NC(=O)c1nn(CC(=O)N2[C@@H]3CC[C@@H](C3)[C@H]2C(=O)Nc2cc(Cl)ccn2)c2ccccc12` [Example 51, 1-(2-((1R,3S,4S)-3-((4-chloropyridin-2-yl)carbamoyl)-2-azabicyclo[2.2.1]heptan-2-yl)-2-oxoethyl)-1H-indazole-3-carboxamide] was 1000 to 10000 nM.
The value for `N#Cc1cc(Cl)nc(NC(=O)[C@@H]2[C@H]3CC[C@H](C3)N2C(=O)Cn2nc(C(N)=O)c3ccccc32)c1` [Example 102, 1-(2-((1R,3S,4S)-3-((6-chloro-4-cyanopyridin-2-yl)carbamoyl)-2-azabicyclo[2.2.1]heptan-2-yl)-2-oxoethyl)-1H-indazole-3-carboxamide] was 100 to 1000 nM.
For `NC(=O)c1nn(CC(=O)N2[C@@H]3CC[C@@H](C3)[C@H]2C(=O)Nc2cccc(Cl)n2)c2ccncc12` [Example 95, 1-(2-((1R,3S,4S)-3-((6-chloropyridin-2-yl)carbamoyl)-2-azabicyclo[2.2.1]heptan-2-yl)-2-oxoethyl)-1H-pyrazolo[4,3-c]pyridine-3-carboxamide], the IC50 is 100 to 1000 nM.
Then `NC(=O)c1nn(CC(=O)N2[C@@H]3CC[C@@H](C3)[C@H]2C(=O)NCc2cc3c(Cl)c[nH]c3cc2F)c2ccccc12` [Example 198, 1-(2-((1R,3S,4S)-3-(((3-chloro-6-fluoro-1H-indol-5-yl)methyl)carbamoyl)-2-azabicyclo[2.2.1]heptan-2-yl)-2-oxoethyl)-1H-indazole-3-carboxamide], with over 10000 nM.
As for `CNC(=O)c1nn(CC(=O)N2[C@@H]3CC[C@@H](C3)[C@H]2C(=O)Nc2cccc(Cl)n2)c2ccccc12` [Example 88, 1-(2-((1R,3S,4S)-3-((6-chloropyridin-2-yl)carbamoyl)-2-azabicyclo[2.2.1]heptan-2-yl)-2-oxoethyl)-N-methyl-1H-indazole-3-carboxamide], the concentration for half-maximal inhibition (IC50) fell in the range of 1000 to 10000 nM.
For `CC(=O)N1CCCN(C(=O)Cn2nc(C(N)=O)c3ccccc32)C(C(=O)NCc2cccc(Cl)c2F)C1` (centres unmarked) [Example 34, 1-(2-(4-acetyl-2-((3-chloro-2-fluorobenzyl)carbamoyl)-1,4-diazepan-1-yl)-2-oxoethyl)-1H-indazole-3-carboxamide], the IC50 is over 10000 nM.
